In assay [1] the test system is C. parvum. Further details: method as in Li et al., 2019. The conditions noted are these: reported value; ref Li et al., 2019; read-out: in vitro anti-Cryptosporidium EC50; cited from earlier work.
The test system of assay [2] is C. parvum. Briefly: Histopathology of distal small intestine of C. parvum-infected IFN-γ KO mice. It counts as in vivo, Cryptosporidium parvum. The conditions noted are these: 1,000 mg/kg daily oral from day 3 PI, sacrificed day 11 PI. As for the experimental part: (§1) Eight weeks old male interferon-gamma knockout (IFN-γ KO) mice (B6.129S7-Ifng^TM1Ts/J) were purchased from The Jackson Laboratory, United States, and allowed to quarantine and acclimatize for 1 week before the commencement of experiments. Before the start of the infection assays in mice, the tolerability of each inhibitor was determined by daily oral gavage with varying dosages (0–10 mg/kg mouse bodyweight) in groups of mice (n = 3 mice per group) for 8 days. During this period, mice were monitored daily for any changes in physical and mental activity, feeding, body weight, body temperature, fur condition, and body posture. […] Mice were divided into infected and uninfected groups (n = 3 mice per group) and each individual mouse was housed in a separate cage lined with sterile gauze bedding. Each mouse from the infected group was infected by oral gavage administration of 10^4 C. parvum AUCP-1 isolate oocysts suspended in 50 μl of PBS. Beginning day 3 PI, groups of mice were orally treated with CpPyK inhibitors (at the specified doses), sham (100 μl of 5% DMSO in PBS), or 1,000 mg/kg paromomycin (in sterile water) once daily for a total of 8 days. Fecal pellets were collected daily in individual sterile 15 ml tubes, and submerged in an equivalent volume of PBS containing a cocktail of penicillin (100 units/ml), streptomycin (100 μg/ml), chloramphenicol (34 μg/ml), and amphotericin (0.25 μg/ml), and stored at 4°C until use. Three independent replicate infection assays were performed. Mice were sacrificed at day 11 PI, and 5 cm of the distal small intestine just anterior to the cecum was resected and submerged in 10% neutral buffered formalin and submitted for histopathological processing in the Comparative Biosciences Histology Laboratory at the University of Illinois at Urbana-Champaign. Briefly, intestinal tissues preserved in 10% neutral buffered formalin were washed in 70% ethanol, embedded in paraffin, and sectioned transversely at a thickness of 5 μm. Sections were stained with hematoxylin and eosin. The slides were imaged using a Zeiss microscope fitted with a color camera.

For assay [3], the system named is C. parvum. Briefly: In vivo efficacy in C. parvum-infected IFN-γ KO mice, fecal oocysts load by qPCR. Further details: species or system Cryptosporidium parvum. The following applies: paromomycin 1,000 mg/kg oral once daily from day 3 PI. On the procedure:
as §1
DNA was isolated from 250 mg of feces collected from individual mice using the QIAamp® PowerFecal® Pro DNA kit (Qiagen, United States) following the manufacturer’s protocol. Oocysts load per gram of feces was measured by quantitative real time PCR (qPCR) analysis of the Cp18s rRNA gene (GenBank accession number AF164102) using gene-specific primers: 5′-[…]-3′ (Forward) and 5′-[…]-3′ (Reverse), described previously ([Parr et al., 2007]). To generate a quantification standard curve, fecal samples were obtained from uninfected mice and spiked with 10^8 C. parvum oocysts per gram of feces, followed by isolation of DNA as described above. Ten-fold serial dilutions of the extracted DNA were made and used as quantification standards for qPCR. C. parvum oocysts load quantification for the test mice was performed using DNA samples from the infected feces. Each 20 μl qPCR reaction contained 10 μl of PowerUp™ SYBR™ Green Master Mix (Applied Biosystems, United States), 500 nM of each primer, and 2 μl of DNA template. After 2 min of initial denaturation at 95°C, 40 cycles of denaturation at 95°C for 15 sec and annealing/extension at 60°C for 1 min were performed in a 7500 Real-Time PCR System (Applied Biosystems, United States). The oocyst load per gram of feces was derived by the 7500-system software using the generated quantification standard curves (Supplementary Figure 1).

The text below walks through data of paper PMC8761912, “Cryptosporidium parvum Pyruvate Kinase Inhibitors With in vivo Anti-cryptosporidial Efficacy” (Frontiers in Microbiology, 2022).

Turning to `NC[C@@H]1O[C@H](O[C@H]2[C@@H](O)[C@H](O[C@@H]3[C@@H](O)[C@H](N)C[C@H](N)[C@H]3O[C@H]3O[C@H](CO)[C@@H](O)[C@H](O)[C@H]3N)O[C@@H]2CO)[C@H](N)[C@@H](O)[C@@H]1O` [Paromomycin, reference compound], the EC50 with C. parvum [1] was 450 µM. In addition, in the assay on C. parvum [2], the “intestinal pathology (histology, distal small intestine)” value was “notably reduced pathological changes”. Further, the “oocysts load by day 9 PI vs other treatments and untreated group” value in the assay with C. parvum [3] is on record as “significantly (P < 0.05) lower oocysts loads”.

A word on the EC50: it is the concentration needed to bring the measured effect to its halfway point.
